Key:
[1] = 101 kPa, Liquid; for viscosity: Capillary tube (Ostwald / Ubbelohde) method; for mass density: Pycnometric method
[2] = xn = mol fraction of the nth substance listed; conditions: 101 kPa, Liquid; for viscosity: Capillary tube (Ostwald / Ubbelohde) method; for mass density: Pycnometric method

COCC(C)O (configuration not stated) [1-methoxy-2-propanol]
[1]
Conditions | mass density [kg/m3] | viscosity [mPa·s]
298.15 K | 915.9 | 1.707
308.15 K | 907.1 | 1.306
318.15 K | 896.9 | 1.069

COCC(C)O (configuration not stated) [1-methoxy-2-propanol] + C=C(C)C(=O)O
[2], x1 = 1
Conditions | mass density [kg/m3] | viscosity [mPa·s]
298.15 K | 915.9 | 1.707
308.15 K | 907.1 | 1.306
318.15 K | 896.9 | 1.069

COCC(C)O (configuration not stated) [1-methoxy-2-propanol] + C=C(C)C(=O)OCCO
[2], x1 = 1
Conditions | mass density [kg/m3] | viscosity [mPa·s]
298.15 K | 915.9 | 1.707
308.15 K | 907.1 | 1.306
318.15 K | 896.9 | 1.069

COCC(C)O (configuration not stated) [1-methoxy-2-propanol] + C=C(C)C(=O)OCc1ccccc1
[2], x1 = 1
Conditions | mass density [kg/m3] | viscosity [mPa·s]
298.15 K | 915.9 | 1.707
308.15 K | 907.1 | 1.306
318.15 K | 896.9 | 1.069

C=C(C)C(=O)OCCO [2-hydroxyethyl 2-methyl-2-propenoate]
[1]
Conditions | mass density [kg/m3] | viscosity [mPa·s]
298.15 K | 1067.1 | 5.784
308.15 K | 1057.7 | 4.194
318.15 K | 1048.6 | 3.181

C=C(C)C(=O)OCCO [2-hydroxyethyl 2-methyl-2-propenoate] + COCC(C)O
[2]
Conditions | mass density, 298.15 K [kg/m3] | mass density, 308.15 K [kg/m3] | mass density, 318.15 K [kg/m3] | viscosity, 298.15 K [mPa·s] | viscosity, 308.15 K [mPa·s] | viscosity, 318.15 K [mPa·s]
x2 = 0 | 1067.1 | 1057.7 | 1048.6 | 5.784 | 4.194 | 3.181
x2 = 0.1 | 1055.2 | 1046.2 | 1037.8 | 5.12 | 3.747 | 2.869
x2 = 0.2 | 1042.8 | 1034.1 | 1025.5 | 4.607 | 3.408 | 2.623
x2 = 0.3 | 1029.9 | 1021.2 | 1012.6 | 4.13 | 3.065 | 2.373
x2 = 0.4 | 1016.3 | 1007.5 | 998.9 | 3.656 | 2.757 | 2.148
x2 = 0.5 | 1001.7 | 993 | 984.4 | 3.256 | 2.477 | 1.947
x2 = 0.6 | 986.2 | 977.6 | 969 | 2.869 | 2.208 | 1.753
x2 = 0.7 | 969.8 | 961.5 | 952.8 | 2.496 | 1.944 | 1.559
x2 = 0.8 | 952.7 | 944.5 | 935.5 | 2.208 | 1.73 | 1.395
x2 = 0.9 | 934.8 | 926.6 | 917.3 | 1.933 | 1.528 | 1.237

C=C(C)C(=O)O [2-methyl-2-propenoic acid]
[1]
Conditions | mass density [kg/m3] | viscosity [mPa·s]
298.15 K | 1009.5 | 1.267
308.15 K | 999.4 | 1.078
318.15 K | 989.2 | 0.945

C=C(C)C(=O)O [2-methyl-2-propenoic acid] + COCC(C)O
[2]
Conditions | mass density, 298.15 K [kg/m3] | mass density, 308.15 K [kg/m3] | mass density, 318.15 K [kg/m3] | viscosity, 298.15 K [mPa·s] | viscosity, 308.15 K [mPa·s] | viscosity, 318.15 K [mPa·s]
x2 = 0 | 1009.5 | 999.4 | 989.2 | 1.267 | 1.078 | 0.945
x2 = 0.1 | 1000.9 | 991.8 | 982.4 | 1.376 | 1.163 | 1.002
x2 = 0.2 | 992 | 983.2 | 974.2 | 1.659 | 1.372 | 1.157
x2 = 0.3 | 983.5 | 974.9 | 966.1 | 1.982 | 1.577 | 1.312
x2 = 0.4 | 975.3 | 966.5 | 957.5 | 2.124 | 1.702 | 1.394
x2 = 0.5 | 966.6 | 957.8 | 948.9 | 2.233 | 1.762 | 1.429
x2 = 0.6 | 957.5 | 948.7 | 940.2 | 2.255 | 1.77 | 1.432
x2 = 0.7 | 947.3 | 938.6 | 930.3 | 2.14 | 1.685 | 1.361
x2 = 0.8 | 936.9 | 928.3 | 919.9 | 1.969 | 1.554 | 1.258
x2 = 0.9 | 926.2 | 917.8 | 909.1 | 1.809 | 1.431 | 1.165

C=C(C)C(=O)OCc1ccccc1 [benzyl methacrylate]
[1]
Conditions | mass density [kg/m3] | viscosity [mPa·s]
298.15 K | 1034.7 | 2.302
308.15 K | 1025.8 | 1.885
318.15 K | 1017 | 1.58

C=C(C)C(=O)OCc1ccccc1 [benzyl methacrylate] + COCC(C)O
[2]
Conditions | mass density, 298.15 K [kg/m3] | mass density, 308.15 K [kg/m3] | mass density, 318.15 K [kg/m3] | viscosity, 298.15 K [mPa·s] | viscosity, 308.15 K [mPa·s] | viscosity, 318.15 K [mPa·s]
x2 = 0 | 1034.7 | 1025.8 | 1017 | 2.302 | 1.885 | 1.58
x2 = 0.1 | 1026.8 | 1018.1 | 1009.5 | 2.194 | 1.806 | 1.52
x2 = 0.2 | 1018.6 | 1010.1 | 1001.4 | 2.09 | 1.716 | 1.441
x2 = 0.3 | 1009.8 | 1001.4 | 992.5 | 1.99 | 1.628 | 1.364
x2 = 0.4 | 1000.2 | 991.8 | 982.8 | 1.895 | 1.538 | 1.291
x2 = 0.5 | 989.7 | 981.3 | 972.2 | 1.8 | 1.465 | 1.228
x2 = 0.6 | 978.1 | 969.7 | 960.5 | 1.731 | 1.406 | 1.166
x2 = 0.7 | 965.2 | 956.8 | 947.5 | 1.677 | 1.354 | 1.115
x2 = 0.8 | 950.9 | 942.3 | 932.7 | 1.633 | 1.312 | 1.084
x2 = 0.9 | 934.6 | 925.9 | 916 | 1.64 | 1.308 | 1.077

— the NIST ThermoML archive (doi:10.1021/je060288t)
